Data set [1] in a line: Pharmacokinetic Determination (Mouse PK). It counts as in vivo, female CD-1 mice. The note with it: female; for Kp at 2 h: CD-1, PO 10.0 mg/kg, Brain concentration vs plasma concentration at 2 hours post dosing, read-out: B/P ratio; for AUC(0-t) / clearance / half-life / Vd / bioavailability / Cmax / Tmax: CD-1, plasma; for Vd: read-out: Vdss; for bioavailability: PO 10.0 mg/kg vs IV 3.0 mg/kg. How it is done:
Pharmacokinetic Determination
Grouping female CD-1 mice weighing 20-30 g randomly to three groups; one group was administered with test compound at a dose of 3.0 mg/kg by intravenous injection, the other two groups were administered with test compound at a dose of 10.0 mg/kg by oral. The formulation for IV groups is DMSO/PEG400/30% HP-β-CD (5/20/75) and the formulation for PO groups is 25% HP-β-CD in 25 mM citrate buffer (pH3.0). After administering, blood samples of intravenous injection group were collected at time points of predose, 0.0833, 0.25, 0.5, 1, 2, 4, 8, 12 and 24 h; blood samples of oral group were collected at time points of predose, 0.25, 0.5, 1, 2, 4, 8, 12, and 24 h. Both blood samples and brain samples were collected at 2 hours post dosing for the second PO group. Standard curve was plotted based on concentrations of the samples in a suitable range, the concentrations of test compounds in plasma samples and brain samples were determined by using LC-MS/MS. Pharmacokinetic parameters were calculated according to drug concentration-time curve using a noncompartmental method by WinNonLin (Phoenix™, version 6.1) or other similar software.

The test system of data set [2] is MCF7. Nature of the data set: Breast Cancer Cell Proliferation Assay (MCF-7), Cell Titer-Glo. It counts as cell-based. The note with it: Homo sapiens, MCF7 cells, 5 days of compound exposure. A digest of the protocol: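 MCF7 cells in phenol red-free DMEM/F12 with charcoal-stripped FBS exposed 5 days to 10-point dilutions (10–0.000005 μM final), 17β-estradiol as control. Viability by CellTiter-Glo luminescence, background-subtracted and expressed relative to estrogen-only treated cells; day-1 pretreatment wells plated.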

Broadly, the AUC(0-t) is the area under the concentration-time curve up to a stated or last time point. Read a low AUC(0-t) as low exposure. One may read the clearance as the volume of plasma or blood freed of the substance per unit of time. The low end stands for inefficient removal, the high end for efficient removal. A word on the half-life: it is how long it takes for the measured level to halve. As a reminder, the bioavailability is dose-corrected exposure relative to a reference, in per cent. The term Cmax denotes the maximum level reached in the sampled fluid or tissue. For orientation: Tmax means the time from dosing to the highest level. By IC50 is commonly meant the midpoint of a concentration-inhibition curve. Read a high IC50 as lower potency.

On to `C[C@@H]1Cc2c([nH]c3ccccc23)[C@@H](c2c(F)cc(O[C@H]3CCN(CCCF)C3)cc2F)N1C12CC(C1)C2` (single isomer, unassigned) [Compound 6], for which, in data set [1], the Kp at 2 h worked out at 4.42 and the bioavailability came to 49.5%. Moreover, in data set [1] (IV, 3.0 mg/kg), the AUC(0-t) turned out to be 2.93 µM·h, the clearance was found to be 30.2 mL/min/kg, the half-life was 9.1 h and the Vd is 16.7 L/kg. In data set [1] (PO, 10.0 mg/kg), the AUC(0-t) turned out to be 4.84 µM·h, the Cmax turned out to be 611 nM, the Tmax came out at 1 h and the half-life was 9.4 h. For the same molecule, in data set [2] (MCF7, 120 h), the IC50 is not above 25 nM.

For the molecule `C[C@@H]1Cc2c([nH]c3ccccc23)[C@@H](c2cnc(NC3CN(CCCF)C3)cn2)N1C12CC(C1)C2` [Compound 16, 5-((1S,3R)-2-(bicyclo[1.1.1]pentan-1-yl)-3-methyl-2,3,4,9-tetrahydro-1H-pyrido[3,4-b]indol-1-yl)-N-(1-(3-fluoropropyl)azetidin-3-yl)pyrazin-2-amine], in data set [1] (IV, 3.0 mg/kg), the AUC(0-t) turned out to be 2.08 µM·h, the clearance was 53.5 mL/min/kg, the half-life is 3.85 h and the Vd is 11.8 L/kg. In addition, in data set [1], the bioavailability was found to be 39.5%. In addition, in data set [1] (PO, 10.0 mg/kg), the AUC(0-t) is 2.73 µM·h, the Cmax was 590 nM, the Tmax was 1 h and the half-life is 3.24 h. For the same molecule, the IC50 in data set [2] (MCF7, 120 h) is not above 25 nM.

As for `C[C@@H]1Cc2c([nH]c3ccccc23)[C@@H](c2ccc(NC3CN(CCCF)C3)cn2)N1C12CC(C1)C2` [Compound 2, 6-((1S,3R)-2-(bicyclo[1.1.1]pentan-1-yl)-3-methyl-2,3,4,9-tetrahydro-1H-pyrido[3,4-b]indol-1-yl)-N-(1-(3-fluoropropyl)azetidin-3-yl)pyridin-3-amine], in data set [1], the Kp at 2 h was 2.87 and the bioavailability worked out at 43.3%. In data set [1] (IV, 3.0 mg/kg), the AUC(0-t) was 1.74 µM·h, the clearance amounted to 55.8 mL/min/kg, the half-life is 8.78 h and the Vd came out at 31.9 L/kg. Moreover, in data set [1] (PO, 10.0 mg/kg), the exposure AUC(0-t) worked out at 2.51 µM·h, the maximum concentration (Cmax) is 358 nM, the Tmax was found to be 1 h and the half-life was 7.23 h. The IC50 in data set [2] (120 h) was not above 25 nM.

As to `C[C@@H]1Cc2c([nH]c3ccccc23)[C@@H](c2c(F)cc(NC3CN(CCCF)C3)cc2F)N1C12CC(C1)C2` [Compound 1, N-(4-((1R,3R)-2-(bicyclo[1.1.1]pentan-1-yl)-3-methyl-2,3,4,9-tetrahydro-1H-pyrido[3,4-b]indol-1-yl)-3,5-difluorophenyl)-1-(3-fluoropropyl)azetidin-3-amine], in data set [1], the Kp at 2 h is 11 and the bioavailability was found to be 52.4%. For the same molecule, in data set [1] (IV, 3.0 mg/kg), the AUC(0-t) was 2.79 µM·h, the clearance amounted to 24.2 mL/min/kg, the half-life was 18 h and the Vd was 31.9 L/kg. In data set [1] (PO, 10.0 mg/kg), the AUC(0-t) turned out to be 4.88 µM·h, the highest level (Cmax) was 466 nM, the Tmax amounted to 2 h and the half-life is 10.5 h. The same molecule returned an IC50 in data set [2] (120 h) not above 25 nM.

As for `C[C@@H]1Cc2c([nH]c3ccccc23)[C@@H](c2ccc(N[C@@H]3CN(CCCF)C[C@H]3F)cc2)N1C12CC(C1)C2` [Compound 75, (3R,4R)—N-(4-((1R,3R)-2-(bicyclo[1.1.1]pentan-1-yl)-3-methyl-2,3,4,9-tetrahydro-1H-pyrido[3,4-b]indol-1-yl)phenyl)-4-fluoro-1-(3-fluoropropyl)pyrrolidin-3-amine], in data set [1], the Kp at 2 h amounted to 6.84 and the bioavailability is 59.2%. Besides, in data set [1] (IV, 3.0 mg/kg), the AUC(0-t) was 1.49 µM·h, the clearance is 66.1 mL/min/kg, the half-life was 7.29 h and the Vd is 17.9 L/kg. In data set [1] (PO, 10.0 mg/kg), the AUC(0-t) came out at 2.94 µM·h, the Cmax was 840 nM, the Tmax was 0.5 h and the half-life is 7.38 h. Further, the IC50 in data set [2] (MCF7, 120 h) is not above 25 nM.

Turning to `C[C@@H]1Cc2c(ccc3[nH]ncc23)[C@@H](c2ccc(NC3CN(CCCF)C3)cn2)N1CC(F)(F)F` [AZD9833, reference compound], the Kp at 2 h in data set [1] came to 0.23. In data set [1] (PO, 10.0 mg/kg), the AUC(0-t) turned out to be 4.19 µM·h, the concentration peaked (Cmax) at 649 nM, the Tmax was found to be 2 h and the half-life is 2.34 h. In data set [2] (MCF7, 120 h), this molecule returned an IC50 not above 25 nM.

Take `C[C@@H]1Cc2c([nH]c3ccccc23)[C@@H](c2c(F)cc(O[C@@H]3CCN(CCCF)C3)cc2F)N1C12CC(C1)C2` (single isomer, unassigned) [Compound 5]: in data set [1], the Kp at 2 h is 7.07 and the bioavailability amounted to 49.5%. Further, in data set [1] (IV, 3.0 mg/kg), the AUC(0-t) came to 2.93 µM·h, the clearance was 30.2 mL/min/kg, the half-life is 9.1 h and the Vd was 16.7 L/kg. Further, in data set [1] (PO, 10.0 mg/kg), the AUC(0-t) is 4.84 µM·h, the peak level (Cmax) was 610 nM, the Tmax came to 1 h and the half-life was 9.4 h. In addition, the IC50 in data set [2] (MCF7, 120 h) fell in the range of 25 to 250 nM.

On to `C[C@@H]1Cc2c([nH]c3ccccc23)[C@@H](c2ccc(NC3CN(CCCF)C3)cc2)N1C12CC(C1)C2` [Compound 40, N-(4-((1R,3R)-2-(bicyclo[1.1.1]pentan-1-yl)-3-methyl-2,3,4,9-tetrahydro-1H-pyrido[3,4-b]indol-1-yl)phenyl)-1-(3-fluoropropyl)azetidin-3-amine], for which, in data set [1], the Kp at 2 h was 13.5 and the bioavailability was 70.5%. In data set [1] (IV, 3.0 mg/kg), the AUC(0-t) came to 1.47 µM·h, the clearance was 64.2 mL/min/kg, the half-life was 11.5 h and the Vd was found to be 49.6 L/kg. For the same molecule, in data set [1] (PO, 10.0 mg/kg), the AUC(0-t) is 3.46 µM·h, the Cmax worked out at 261 nM and the Tmax is 1 h. Further, the IC50 in data set [2] (MCF7, 120 h) was not above 25 nM.

In the case of `CCCN1CC[C@H](Nc2ccc([C@@H]3c4[nH]c5ccccc5c4C[C@@H](C)N3C34CC(C3)C4)cc2)C1` [Compound 72, (S)—N-(4-((1R,3R)-2-(bicyclo[1.1.1]pentan-1-yl)-3-methyl-2,3,4,9-tetrahydro-1H-pyrido[3,4-b]indol-1-yl)phenyl)-1-propylpyrrolidin-3-amine], in data set [1], the Kp at 2 h was determined as 8.82 and the bioavailability amounted to 51.5%. In addition, the AUC(0-t) in data set [1] (IV, 3.0 mg/kg) was found to be 2.17 µM·h. In data set [1] (PO, 10.0 mg/kg), the AUC(0-t) worked out at 3.73 µM·h, the highest level (Cmax) was 240 nM and the Tmax was found to be 4 h. Besides, the IC50 in data set [2] (MCF7, 120 h) is not above 25 nM.

In data set [2] (MCF7, 120 h), `C[C@@H]1Cc2c([nH]c3ccccc23)[C@@H](c2c(F)cc(NC3CN(CCCF)C3)cc2F)N1C12CC(C(N)=O)(C1)C2` (single isomer, unassigned) [Compound 76] yielded an IC50 of 25 to 250 nM.

As for `C[C@@H]1Cc2c([nH]c3ccccc23)[C@@H](c2c(F)cc(NCCN3CCCC3)cc2F)N1C12CC(C1)C2` [Compound 22, 4-((1R,3R)-2-(bicyclo[1.1.1]pentan-1-yl)-3-methyl-2,3,4,9-tetrahydro-1H-pyrido[3,4-b]indol-1-yl)-3,5-difluoro-N-(2-(pyrrolidin-1-yl)ethyl)aniline], in data set [2] (MCF7, 120 h), the IC50 is 25 to 250 nM.

Molecule `C[C@@H]1Cc2c([nH]c3ccccc23)[C@@H](c2ccc(O[C@H]3CCN(CCCF)C3)cn2)N1C12CC(C1)C2` (single isomer, unassigned) [Compound 12] gave an IC50 in data set [2] (MCF7, 120 h) of 25 to 250 nM.

On to `C[C@@H]1Cc2c([nH]c3ccccc23)[C@@H](c2ccc(N[C@@H]3CN(CCCF)C[C@H]3O)cc2)N1C12CC(C1)C2` (single isomer, unassigned) [Compound 80], for which the IC50 in data set [2] (MCF7, 120 h) was not above 25 nM.

In the case of `CCCN1CC(Oc2ccc([C@H]3c4[nH]c5ccccc5c4C[C@H](C)N3C34CC(CO)(C3)C4)cc2)C1` (single isomer, unassigned) [Compound 53], in data set [2] (MCF7, 120 h), the IC50 is 25 to 250 nM.

Molecule `C[C@@H]1Cc2c([nH]c3ccccc23)[C@@H](c2ccc(NC3CN(CCCF)C3)cc2)N1C12CC(CF)(C1)C2` (single isomer, unassigned) [Compound 62] had a 50% inhibitory concentration (IC50) in data set [2] (MCF7, 120 h) not below 250 nM.

With `C[C@@H]1Cc2c([nH]c3ccccc23)[C@@H](c2c(F)cc(O[C@@H]3CCN(CCCF)C3)cc2F)N1C12CC(C#N)(C1)C2` (single isomer, unassigned) [Compound 37], in data set [2] (MCF7, 120 h), the IC50 was not above 25 nM.

In data set [2] (MCF7, 120 h), `C[C@@H]1Cc2c([nH]c3ccccc23)[C@@H](c2ccc(NCCN3CCC(CF)C3)nc2)N1C12CC(C1)C2` (stereo partly drawn) [Compound 29, 5-((1R,3R)-2-(bicyclo[1.1.1]pentan-1-yl)-3-methyl-2,3,4,9-tetrahydro-1H-pyrido[3,4-b]indol-1-yl)-N-(2-(3-(fluoromethyl)pyrrolidin-1-yl)ethyl)pyridin-2-amine] displayed an IC50 not below 250 nM.

Consider `C[C@H]1Cc2c([nH]c3ccccc23)[C@H](c2c(F)cc(O[C@H]3CCN(CCCF)C3)cc2F)N1C12CC(C(N)=O)(C1)C2` (single isomer, unassigned) [Compound 32], for which the IC50 in data set [2] (MCF7, 120 h) was not below 250 nM.

The record behind these values is patent US11999728B2, “Estrogen receptor modulators” (Recurium IP Holdings, LLC, priority 2020, dated 2024).
